According to article PMC8050214 (Scientific Reports, 2021):

Assays:
[1] = target: T1, hD2LR (human dopamine D2 receptor, long splice variant) (Homo sapiens, UniProt P14416); test: BRET G protein (GαoA) activation, Gβγ-Venus / masGRK3ct-NLuc release; assay type: cell-based
T1 construct: gene DRD2; full-length long isoform, stably expressed in Flp-In HEK293 cells (G protein BRET assay); C351I G alpha subunits co-transfected as sensors; hD2LR-NLuc fusion with GRK2-Venus in the GRK2 recruitment assay (SCH23390 row)

[2] = target: T1, hD2LR (human dopamine D2 receptor, long splice variant); test: Schild analysis, BRET GRK2 recruitment (hD2LR-NLuc / GRK2-Venus); assay type: cell-based; settings: read-out: pA2 (converted)

Work on `CC(C)C[C@H]1C(=O)N2CCC[C@H]2[C@]2(O)O[C@](NC(=O)[C@@H]3C=C4c5cccc6[nH]c(Br)c(c56)C[C@H]4N(C)C3)(C(C)C)C(=O)N12` [Bromocriptine] yielded an EC50 [1] of 14.5 nM.
Compound `CCN(CC)C(=O)N[C@H]1C[C@@H]2c3cccc4[nH]cc(c34)C[C@H]2N(C)C1` [Terguride] has an EC50 [1] of 4.37 nM.
In the case of `C=CCN1C[C@H](C(=O)N(CCCN(C)C)C(=O)NCC)C[C@@H]2c3cccc4[nH]cc(c34)C[C@H]21` [Cabergoline], the EC50 [1] is reported as 1.58 nM.
`CN1CCc2cc(Cl)c(O)cc2[C@@H](c2ccccc2)C1` [SCH23390] gave a Kb [2] of 525 nM.
For `CCCN(CCC)CCc1cccc2c1CC(=O)N2` [Ropinirole], the EC50 [1] was 2.82 nM.
With `Oc1c(CN2CCN(c3ccccn3)CC2)cc(Cl)c2cccnc12` [MLS1547] the EC50 [1] was 209 nM.
Compound `Clc1cccc(C2CCN(CCCOc3ccc4scnc4c3)CC2)c1Cl` [UNC9994] has an EC50 [1] of 282 nM.
